Results published in ChEMBL document CHEMBL4507256 (2021).

Legend:
[1] = biological target: Tyrosine-protein kinase ABL1 (Homo sapiens) (UniProt P00519); conditions: Compound concentration 1000.0 nM
[2] = biological target: Aurora kinase B (Homo sapiens) (UniProt Q96GD4); conditions: Compound concentration 1000.0 nM
[3] = biological target: Serine/threonine-protein kinase BRSK1 (Homo sapiens) (UniProt Q8TDC3); conditions: Compound concentration 1000.0 nM
[4] = biological target: Calcium/calmodulin-dependent protein kinase type 1 (Homo sapiens) (UniProt Q14012); conditions: Compound concentration 1000.0 nM
[5] = biological target: Calcium/calmodulin-dependent protein kinase type II subunit alpha (Homo sapiens) (UniProt Q9UQM7); conditions: Compound concentration 1000.0 nM
[6] = biological target: Cyclin-dependent kinase 11A (Homo sapiens) (UniProt Q9UQ88); conditions: Compound concentration 1000.0 nM
[7] = biological target: Cyclin-dependent kinase 2 (Homo sapiens) (UniProt P24941); conditions: Compound concentration 1000.0 nM
[8] = biological target: Cyclin-dependent kinase-like 1 (Homo sapiens) (UniProt Q00532); conditions: Compound concentration 1000.0 nM
[9] = biological target: Serine/threonine-protein kinase DCLK1 (Homo sapiens) (UniProt O15075); conditions: Compound concentration 1000.0 nM
[10] = test system: Epidermal growth factor receptor (Homo sapiens), P00533 [G719S]; conditions: Compound concentration 1000.0 nM
[11] = biological target: Ephrin type-B receptor 1 (Homo sapiens) (UniProt P54762); conditions: Compound concentration 1000.0 nM
[12] = biological target: Tyrosine-protein kinase Fes/Fps (Homo sapiens) (UniProt P07332); conditions: Compound concentration 1000.0 nM
[13] = test system: Fibroblast growth factor receptor 3 (Homo sapiens), P22607 [G697C]; conditions: Compound concentration 1000.0 nM
[14] = biological target: G protein-coupled receptor kinase 3 (Homo sapiens) (UniProt P35626); conditions: Compound concentration 1000.0 nM
[15] = biological target: Tyrosine-protein kinase JAK3 (Homo sapiens) (UniProt P52333); conditions: Compound concentration 1000.0 nM
[16] = test system: Mast/stem cell growth factor receptor Kit (Homo sapiens), P10721 [V559D,T670I]; conditions: Compound concentration 1000.0 nM
[17] = biological target: Serine/threonine-protein kinase 10 (Homo sapiens) (UniProt O94804); conditions: Compound concentration 1000.0 nM
[18] = biological target: Leucine-rich repeat serine/threonine-protein kinase 2 (Homo sapiens) (UniProt Q5S007); conditions: Compound concentration 1000.0 nM
[19] = biological target: Mitogen-activated protein kinase kinase kinase kinase 2 (Homo sapiens) (UniProt Q12851); conditions: Compound concentration 1000.0 nM
[20] = biological target: Serine/threonine-protein kinase MARK1 (Homo sapiens) (UniProt Q9P0L2); conditions: Compound concentration 1000.0 nM
[21] = biological target: Serine/threonine-protein kinase MRCK alpha (Homo sapiens) (UniProt Q5VT25); conditions: Compound concentration 1000.0 nM
[22] = biological target: Serine/threonine-protein kinase 38 (Homo sapiens) (UniProt Q15208); conditions: Compound concentration 1000.0 nM
[23] = biological target: Phosphorylase b kinase regulatory subunit alpha, liver isoform (Homo sapiens) (UniProt P46019); conditions: Compound concentration 1000.0 nM
[24] = test system: Phosphatidylinositol 4,5-bisphosphate 3-kinase catalytic subunit alpha isoform (Homo sapiens), P42336 [E542K]; conditions: Compound concentration 1000.0 nM
[25] = biological target: Serine/threonine-protein kinase pim-2 (Homo sapiens) (UniProt Q9P1W9); conditions: Compound concentration 1000.0 nM
[26] = biological target: Phosphatidylinositol 5-phosphate 4-kinase type-2 beta (Homo sapiens) (UniProt P78356); conditions: Compound concentration 1000.0 nM
[27] = biological target: cAMP-dependent protein kinase catalytic subunit beta (Homo sapiens) (UniProt P22694); conditions: Compound concentration 1000.0 nM
[28] = biological target: cGMP-dependent protein kinase 1 (Homo sapiens) (UniProt Q13976); conditions: Compound concentration 1000.0 nM
[29] = biological target: Serine/threonine-protein kinase PRP4 homolog (Homo sapiens) (UniProt Q13523); conditions: Compound concentration 1000.0 nM
[30] = biological target: RAF proto-oncogene serine/threonine-protein kinase (Homo sapiens) (UniProt P04049); conditions: Compound concentration 1000.0 nM
[31] = test system: Proto-oncogene tyrosine-protein kinase receptor Ret (Homo sapiens), P07949 [V804M]; conditions: Compound concentration 1000.0 nM
[32] = biological target: Receptor-interacting serine/threonine-protein kinase 1 (Homo sapiens) (UniProt Q13546); conditions: Compound concentration 1000.0 nM
[33] = biological target: Proto-oncogene tyrosine-protein kinase ROS (Homo sapiens) (UniProt P08922); conditions: Compound concentration 1000.0 nM
[34] = biological target: Ribosomal protein S6 kinase alpha-5 (Homo sapiens) (UniProt O75582); conditions: Compound concentration 1000.0 nM
[35] = biological target: Ribosomal protein S6 kinase alpha-1 (Homo sapiens) (UniProt Q15418); conditions: Compound concentration 1000.0 nM
[36] = biological target: Serine/threonine-protein kinase Sgk2 (Homo sapiens) (UniProt Q9HBY8); conditions: Compound concentration 1000.0 nM
[37] = biological target: Serine/threonine-protein kinase SIK2 (Homo sapiens) (UniProt Q9H0K1); conditions: Compound concentration 1000.0 nM
[38] = biological target: Wee1-like protein kinase 2 (Homo sapiens) (UniProt P0C1S8); conditions: Compound concentration 1000.0 nM
[39] = biological target: Serine/threonine-protein kinase WNK2 (Homo sapiens) (UniProt Q9Y3S1); conditions: Compound concentration 1000.0 nM
[40] = biological target: Serine/threonine-protein kinase 32A (Homo sapiens) (UniProt Q8WU08); conditions: Compound concentration 1000.0 nM
[41] = biological target: Serine/threonine-protein kinase 32C (Homo sapiens) (UniProt Q86UX6); conditions: Compound concentration 1000.0 nM
[42] = biological target: Mitogen-activated protein kinase kinase kinase 19 (Homo sapiens) (UniProt Q56UN5); conditions: Compound concentration 1000.0 nM
[43] = biological target: D(3) dopamine receptor (Homo sapiens) (UniProt P35462); conditions: Compound concentration 10.0 uM
[44] = biological target: Kappa-type opioid receptor (Homo sapiens) (UniProt P41145); conditions: Compound concentration 10.0 uM
Rattus norvegicus = organism: Rattus norvegicus; conditions: Compound concentration 10.0 uM

Chain of Ribosomal protein S6 kinase alpha-5 (Homo sapiens) (O75582 whole entry, looked up): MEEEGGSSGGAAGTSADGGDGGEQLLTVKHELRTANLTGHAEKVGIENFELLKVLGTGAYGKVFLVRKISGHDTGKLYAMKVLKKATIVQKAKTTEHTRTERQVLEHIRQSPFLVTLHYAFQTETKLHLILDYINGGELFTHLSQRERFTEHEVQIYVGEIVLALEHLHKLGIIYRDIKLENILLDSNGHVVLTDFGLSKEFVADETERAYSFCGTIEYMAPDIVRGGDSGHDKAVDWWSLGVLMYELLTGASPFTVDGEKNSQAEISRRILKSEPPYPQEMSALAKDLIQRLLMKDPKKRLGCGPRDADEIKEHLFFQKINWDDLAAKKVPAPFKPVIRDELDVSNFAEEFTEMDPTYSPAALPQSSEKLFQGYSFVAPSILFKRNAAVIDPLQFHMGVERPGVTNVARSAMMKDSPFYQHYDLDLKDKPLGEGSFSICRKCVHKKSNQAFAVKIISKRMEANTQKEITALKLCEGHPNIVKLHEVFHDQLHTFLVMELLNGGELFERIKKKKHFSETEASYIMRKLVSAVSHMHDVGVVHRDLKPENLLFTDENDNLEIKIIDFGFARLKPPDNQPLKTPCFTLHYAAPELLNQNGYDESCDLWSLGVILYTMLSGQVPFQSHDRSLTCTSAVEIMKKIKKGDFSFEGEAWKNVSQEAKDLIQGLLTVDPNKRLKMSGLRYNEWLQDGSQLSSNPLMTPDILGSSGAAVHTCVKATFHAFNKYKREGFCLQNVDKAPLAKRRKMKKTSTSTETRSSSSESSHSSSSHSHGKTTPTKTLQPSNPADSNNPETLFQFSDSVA
Chain of Serine/threonine-protein kinase MRCK alpha (Homo sapiens) (Q5VT25 whole entry): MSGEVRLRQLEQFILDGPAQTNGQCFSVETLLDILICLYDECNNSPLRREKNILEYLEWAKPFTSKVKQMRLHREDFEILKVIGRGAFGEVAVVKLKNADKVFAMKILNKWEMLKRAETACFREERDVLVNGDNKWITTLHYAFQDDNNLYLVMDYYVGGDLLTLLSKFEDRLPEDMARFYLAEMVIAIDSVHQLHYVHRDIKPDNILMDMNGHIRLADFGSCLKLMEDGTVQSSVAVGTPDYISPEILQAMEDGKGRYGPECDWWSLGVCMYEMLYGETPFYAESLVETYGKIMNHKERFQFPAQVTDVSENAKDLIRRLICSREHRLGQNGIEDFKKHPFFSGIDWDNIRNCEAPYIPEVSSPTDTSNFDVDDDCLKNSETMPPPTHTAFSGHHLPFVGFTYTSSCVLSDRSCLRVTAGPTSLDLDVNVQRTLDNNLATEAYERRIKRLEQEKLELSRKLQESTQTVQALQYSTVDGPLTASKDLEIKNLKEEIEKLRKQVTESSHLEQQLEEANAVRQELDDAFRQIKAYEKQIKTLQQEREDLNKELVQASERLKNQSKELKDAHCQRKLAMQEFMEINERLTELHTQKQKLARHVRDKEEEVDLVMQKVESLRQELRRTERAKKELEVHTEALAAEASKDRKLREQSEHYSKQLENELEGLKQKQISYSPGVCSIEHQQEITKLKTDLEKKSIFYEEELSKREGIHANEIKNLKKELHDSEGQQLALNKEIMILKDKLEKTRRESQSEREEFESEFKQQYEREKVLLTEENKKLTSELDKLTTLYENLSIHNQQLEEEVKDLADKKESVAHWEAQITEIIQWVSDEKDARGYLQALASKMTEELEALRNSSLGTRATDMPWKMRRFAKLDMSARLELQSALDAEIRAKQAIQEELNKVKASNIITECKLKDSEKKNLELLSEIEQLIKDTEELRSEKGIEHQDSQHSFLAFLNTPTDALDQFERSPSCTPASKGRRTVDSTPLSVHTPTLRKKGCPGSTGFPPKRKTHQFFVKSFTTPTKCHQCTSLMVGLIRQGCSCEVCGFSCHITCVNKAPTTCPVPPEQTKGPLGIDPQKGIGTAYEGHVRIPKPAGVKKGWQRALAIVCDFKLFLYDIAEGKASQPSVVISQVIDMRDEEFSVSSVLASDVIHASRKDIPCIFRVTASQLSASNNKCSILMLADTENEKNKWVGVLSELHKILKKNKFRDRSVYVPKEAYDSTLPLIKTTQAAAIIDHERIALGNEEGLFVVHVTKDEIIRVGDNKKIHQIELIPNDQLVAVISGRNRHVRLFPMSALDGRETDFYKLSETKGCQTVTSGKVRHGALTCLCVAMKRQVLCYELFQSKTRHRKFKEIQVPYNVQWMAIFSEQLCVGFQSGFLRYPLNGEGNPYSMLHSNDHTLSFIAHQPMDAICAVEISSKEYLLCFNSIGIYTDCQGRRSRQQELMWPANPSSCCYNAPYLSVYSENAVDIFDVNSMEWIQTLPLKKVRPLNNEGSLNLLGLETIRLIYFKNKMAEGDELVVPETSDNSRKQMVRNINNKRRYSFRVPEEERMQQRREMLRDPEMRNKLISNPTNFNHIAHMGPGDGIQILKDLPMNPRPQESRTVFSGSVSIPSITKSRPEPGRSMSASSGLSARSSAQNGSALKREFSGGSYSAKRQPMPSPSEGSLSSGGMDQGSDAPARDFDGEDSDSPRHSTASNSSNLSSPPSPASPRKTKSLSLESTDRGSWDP
Chain of RAF proto-oncogene serine/threonine-protein kinase (Homo sapiens) (P04049 whole entry): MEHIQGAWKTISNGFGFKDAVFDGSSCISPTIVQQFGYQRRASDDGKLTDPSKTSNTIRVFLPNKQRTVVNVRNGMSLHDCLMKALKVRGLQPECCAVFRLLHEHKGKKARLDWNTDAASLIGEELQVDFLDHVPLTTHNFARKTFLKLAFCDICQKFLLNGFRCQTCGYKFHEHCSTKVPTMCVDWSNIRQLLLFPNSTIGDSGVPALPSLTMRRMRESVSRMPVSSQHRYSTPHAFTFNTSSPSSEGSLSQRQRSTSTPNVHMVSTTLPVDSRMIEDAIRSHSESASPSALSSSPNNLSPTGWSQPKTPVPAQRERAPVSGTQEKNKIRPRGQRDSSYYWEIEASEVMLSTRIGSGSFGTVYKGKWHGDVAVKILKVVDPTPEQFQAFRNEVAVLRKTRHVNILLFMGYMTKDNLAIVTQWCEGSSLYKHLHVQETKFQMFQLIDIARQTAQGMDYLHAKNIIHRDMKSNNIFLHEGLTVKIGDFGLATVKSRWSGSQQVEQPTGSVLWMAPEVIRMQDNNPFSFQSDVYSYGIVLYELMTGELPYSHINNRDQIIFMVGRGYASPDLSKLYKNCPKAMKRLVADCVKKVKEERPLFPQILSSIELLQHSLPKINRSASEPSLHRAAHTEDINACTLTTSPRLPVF
Chain of Ribosomal protein S6 kinase alpha-1 (Homo sapiens) (Q15418 whole entry): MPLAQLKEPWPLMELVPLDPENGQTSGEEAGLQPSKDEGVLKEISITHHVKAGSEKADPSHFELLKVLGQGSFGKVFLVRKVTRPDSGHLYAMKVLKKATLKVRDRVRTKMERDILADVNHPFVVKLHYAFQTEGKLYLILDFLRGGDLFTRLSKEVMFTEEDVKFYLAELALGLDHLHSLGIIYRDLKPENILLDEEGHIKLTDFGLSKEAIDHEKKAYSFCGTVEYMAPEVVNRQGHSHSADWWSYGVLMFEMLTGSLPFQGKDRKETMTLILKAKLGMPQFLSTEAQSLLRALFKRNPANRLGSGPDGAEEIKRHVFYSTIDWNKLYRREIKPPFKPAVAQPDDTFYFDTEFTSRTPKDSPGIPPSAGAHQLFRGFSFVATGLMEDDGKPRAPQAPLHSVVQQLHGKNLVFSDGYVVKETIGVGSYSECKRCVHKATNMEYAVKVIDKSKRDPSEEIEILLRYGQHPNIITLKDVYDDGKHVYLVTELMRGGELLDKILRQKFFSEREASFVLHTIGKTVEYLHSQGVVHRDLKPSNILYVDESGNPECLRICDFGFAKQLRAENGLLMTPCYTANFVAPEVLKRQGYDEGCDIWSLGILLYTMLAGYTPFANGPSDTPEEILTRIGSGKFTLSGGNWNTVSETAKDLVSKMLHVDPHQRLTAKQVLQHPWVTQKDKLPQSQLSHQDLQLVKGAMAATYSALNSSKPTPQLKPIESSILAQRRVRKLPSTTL
Chain of Serine/threonine-protein kinase DCLK1 (Homo sapiens) (O15075 whole entry): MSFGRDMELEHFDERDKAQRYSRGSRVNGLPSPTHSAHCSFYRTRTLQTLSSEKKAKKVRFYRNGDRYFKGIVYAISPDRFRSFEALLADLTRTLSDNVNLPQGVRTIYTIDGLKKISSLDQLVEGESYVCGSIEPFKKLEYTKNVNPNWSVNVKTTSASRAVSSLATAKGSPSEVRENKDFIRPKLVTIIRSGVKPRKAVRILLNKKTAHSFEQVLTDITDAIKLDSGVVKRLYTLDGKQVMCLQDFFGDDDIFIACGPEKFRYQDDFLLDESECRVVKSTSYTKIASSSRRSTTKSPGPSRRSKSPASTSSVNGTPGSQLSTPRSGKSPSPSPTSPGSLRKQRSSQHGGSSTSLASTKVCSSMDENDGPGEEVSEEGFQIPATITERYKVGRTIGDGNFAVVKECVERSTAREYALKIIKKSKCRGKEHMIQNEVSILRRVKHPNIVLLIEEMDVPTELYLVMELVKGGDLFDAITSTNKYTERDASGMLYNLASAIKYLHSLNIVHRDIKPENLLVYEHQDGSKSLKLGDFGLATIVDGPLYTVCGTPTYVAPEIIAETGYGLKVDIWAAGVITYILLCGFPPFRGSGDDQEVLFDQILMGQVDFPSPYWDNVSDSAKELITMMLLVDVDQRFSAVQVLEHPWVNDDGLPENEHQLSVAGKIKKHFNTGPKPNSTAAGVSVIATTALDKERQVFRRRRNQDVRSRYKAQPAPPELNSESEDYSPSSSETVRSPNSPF
Chain of Kappa-type opioid receptor (Homo sapiens) (P41145 whole entry): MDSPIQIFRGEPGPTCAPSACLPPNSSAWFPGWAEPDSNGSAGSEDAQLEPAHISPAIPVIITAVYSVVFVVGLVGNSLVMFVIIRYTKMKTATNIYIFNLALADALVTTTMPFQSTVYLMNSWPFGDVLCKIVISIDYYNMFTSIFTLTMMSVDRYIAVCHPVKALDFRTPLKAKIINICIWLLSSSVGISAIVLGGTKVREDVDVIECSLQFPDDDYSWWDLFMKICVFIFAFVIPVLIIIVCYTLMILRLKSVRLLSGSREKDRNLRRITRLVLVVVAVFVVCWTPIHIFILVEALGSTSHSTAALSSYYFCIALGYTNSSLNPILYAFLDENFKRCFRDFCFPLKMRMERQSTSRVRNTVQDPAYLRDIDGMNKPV

CCC(=N\O)/C(C)=C/c1ccc(F)cc1 [A-079]
residual activity [1]: 83% | residual activity [2]: 68% | residual activity [3]: 100% | residual activity [4]: 100% | residual activity [5]: 81% | residual activity [6]: 94% | residual activity [7]: 82% | residual activity [8]: 81% | residual activity [9]: 93% | residual activity [10]: 67% | residual activity [11]: 100% | residual activity [12]: 73% | residual activity [13]: 84% | residual activity [14]: 92% | residual activity [15]: 80% | residual activity [16]: 95% | residual activity [17]: 76% | residual activity [18]: 90% | residual activity [19]: 97% | residual activity [20]: 100% | residual activity [21]: 100% | residual activity [22]: 94% | residual activity [23]: 90% | residual activity [24]: 100% | residual activity [25]: 83% | residual activity [26]: 91% | residual activity [27]: 89% | residual activity [28]: 100% | residual activity [29]: 100% | residual activity [30]: 91% | residual activity [31]: 100% | residual activity [32]: 82% | residual activity [33]: 87% | residual activity [34]: 100% | residual activity [35]: 100% | residual activity [36]: 78% | residual activity [37]: 100% | residual activity [38]: 83% | residual activity [39]: 80% | residual activity [40]: 100% | residual activity [41]: 65% | residual activity [42]: 66% | inhibition [43]: 14.5% | inhibition [44]: 15.7% | inhibition (Rattus norvegicus): 11.9%

CCC(=N\O)/C(C)=C/c1ccc(F)c(C)c1 [A-226]
residual activity [1]: 100% | residual activity [2]: 100% | residual activity [3]: 99% | residual activity [4]: 86% | residual activity [5]: 100% | residual activity [6]: 69% | residual activity [7]: 96% | residual activity [8]: 91% | residual activity [9]: 100% | residual activity [10]: 79% | residual activity [11]: 90% | residual activity [12]: 93% | residual activity [13]: 87% | residual activity [14]: 100% | residual activity [15]: 94% | residual activity [16]: 100% | residual activity [17]: 73% | residual activity [18]: 100% | residual activity [19]: 100% | residual activity [20]: 99% | residual activity [21]: 100% | residual activity [22]: 95% | residual activity [23]: 100% | residual activity [24]: 54% | residual activity [25]: 100% | residual activity [26]: 74% | residual activity [27]: 100% | residual activity [28]: 100% | residual activity [29]: 85% | residual activity [30]: 99% | residual activity [31]: 100% | residual activity [32]: 100% | residual activity [33]: 88% | residual activity [34]: 78% | residual activity [35]: 96% | residual activity [36]: 100% | residual activity [37]: 100% | residual activity [38]: 100% | residual activity [39]: 100% | residual activity [40]: 100% | residual activity [41]: 100% | residual activity [42]: 98% | inhibition [43]: 8.6% | inhibition [44]: 8.6% | inhibition (Rattus norvegicus): 50.6%
